Data reported in US7781402B2, “Methods and implantable devices for treating supraventricular arrhythmias” (Closed Loop Therapies Ltd., priority 2004, dated 2010).

Legend:
[1] = system: stroke; details: people with atrial fibrillation; cited from earlier work
[2] = system: recent-onset atrial fibrillation; details: phase 3 trial; cited from earlier work
[3] = system: atrial fibrillation; assay: Termination of induced atrial fibrillation in anesthetized Wistar rats (ECG); assay type: in vivo
[4] = system: atrial flutter; assay: Termination of induced atrial flutter in anesthetized Wistar rats (ECG); assay type: in vivo; details: nine rats, 0.02-0.3 mg/kg via tail vein
Source text: (§1) Induction of atrial tachycardia, atrial fibrillation and atrial flutter in rats—Wistar rats of either sex weighing 450-550 g were used in this study. Rats were anesthetized and atrial tachycardia, atrial fibrillation, or atrial flutter were induced by cardiac stimulation using a programmable stimulator with an isolated constant-current source. Stimuli of rectangular pulses of 2 milliseconds (ms) duration at three times diastolic threshold were delivered via transesophageal bipolar catheter positioned optimally to stimulate the atria. Double and triple extra stimulation techniques or a minimal coupling interval of 10 ms were performed in an attempt to induce atrial arrhythmias. Atrial burst pacing at intervals of 40 to 80 ms was also performed to induce atrial arrhythmias.
(§2) Electrocardiogram (ECG) recording—The surface six-lead ECG was continuously recorded from subcutaneous 25-gauge electrodes in each limb of the animal. The ECG channels were amplified (0.1-0.5 mV/cm) and filtered between 0.5-250 Hz. The ECG variables were calculated according to standard criteria.
(§3) Rapidly hydrolysable cholinergic receptor agonists (RHCA)—The RHCA were injected either through the tail vein or directly into the right ventricular cavity of rats with induced atrial fibrillation, atrial flutter or atrial tachycardia. The RHCA used in the present study was acetylcholine (ACh). […]

[5] = system: atrial fibrillation; assay: Termination of induced atrial fibrillation in anesthetized Wistar rats (ECG); assay type: in vivo; remark: listed apart in the source
Source text: as §1, §2
Rapidly hydrolysable cholinergic receptor agonists (RHCA)—The RHCA were injected either through the tail vein or directly into the right ventricular cavity of rats with induced atrial fibrillation, atrial flutter or atrial tachycardia. The RHCA used in the present study was acetylcholine (ACh). ACh was dissolved at a concentration of either 1 mg/ml or 0.1 mg/ml in 0.9% NaCl solution and was injected either to the tail vein at a dosage of 0.2 mg/kg body weight, or to the right ventricle at a dosage of 0.02 mg/kg body weight.
Atrial fibrillation was elicited in rats as described in Example 1, hereinabove.

[6] = system: atrial tachycardia; assay: Termination of induced atrial tachycardia in anesthetized Wistar rats (ECG); assay type: in vivo
Description: The effect of rapidly hydrolysable cholinergic receptor agonists (RHCA) on supraventricular arrhythmia was tested in anesthetized Wistar rats, as follows.
as §1, §2, §3

[7] = system: arrhythmia induction; details: wild type and M1 cholinergic receptor knockout mice; cited from earlier work
[8] = bolus injection 0.04-0.2 mg/kg body weight
[9] = 0.2 mg/kg through the tail vein, FIG. 5
[10] = RHCA into right ventricular cavity, n=10, FIG. 4
[11] = bolus injection into the right ventricular cavity
[12] = bolus injection into the tail vein
[13] = 0.02 mg/kg into right ventricular cavity, FIG. 2b
[14] = 0.2 mg/kg via tail vein, FIG. 2a

In the case of `CC(=O)CC(c1ccccc1)c1c(O)c2ccccc2oc1=O` (stereo not shown) [Coumadin, warfarin], the “reduction of the risk of stroke” value [1] is given as 60-80%.
For `COc1ccc(CCO[C@@H]2CCCC[C@H]2N2CC[C@@H](O)C2)cc1OC` [RSD1235], the “conversion of recent-onset atrial fibrillation to sinus rhythm” value [2] is listed as “demonstrated its effectiveness to convert recent-onset atrial fibrillation to sinus rhythm”.
With `CC(=O)OCC[N+](C)(C)C` [acetylcholine] the “time until transient sinus bradycardia (and AV block) disappeared” value ([3]; 0.04 mg/kg into right ventricular cavity) was ≤ 20 s, the “additional time to restore normal rhythm” value [3, 8] was 1 to 5 s and the “time to conversion to sinus rhythm” value [4] was 2 to 5 s. The “additional time until SA and AV nodes / AV conduction recovered” value [5, 9] was 1.5 s, the “time to termination of atrial fibrillation” value (from here on “time … of atrial fibrillation”) [5, 9] was ≤ 9.8 s and the “atrial fibrillation cases terminated” value [5, 10] was 100%. For the same molecule, the “time within which atrial fibrillation cases are terminated” value [5, 10] was ≤ 8.4 ± 1.9 s, the “time … of atrial fibrillation” value [5, 8] was 0.5 to 15 s and the “additional time to restore normal rhythm” value [5, 11] was 1 to 5 s. For the same molecule, the “time … of atrial fibrillation” value [5, 11] was 0.5 to 10.5 s, the “additional time to restore normal rhythm” value [5, 12] was 1 to 5 s and the “time … of atrial fibrillation” value [5, 12] was 2 to 15 s. The “time of complete AV node conduction recovery following RHCA administration” value ([6]; 0.02 mg/kg into right ventricular cavity) was “about 6 seconds”, the “period of cardiac arrest after termination” value [6, 13] was 1.25 s and the “time until AV conduction completely recovered” value [6, 13] was “about 4.5 sec”. For the same molecule, the “time to termination of atrial tachycardia” value (from here on “time … of atrial tachycardia”) ([6]; 0.02 mg/kg into right ventricular cavity, example rat (FIG. 2b)) was 0.5 s, the “duration of high degree AV block” value ([6]; 0.02 mg/kg into right ventricular cavity, following acetylcholine hydrolysis) was 2.5 s and the “lag to termination of atrial tachycardia” value ([6]; 0.2 mg/kg body weight via tail vein, representative rat (FIG. 2a)) was 2.6 s. For the same molecule, the “time for sinus rhythm to reach its pre-arrhythmic value” ([6]; 0.2 mg/kg via tail vein) was “about 1 minute”, the “P-P interval immediately following RHCA administration” value [6, 14] was 650 ± 3 ms and the “R-R interval immediately following RHCA administration” value [6, 14] was 652 ± 3 ms. The “time … of atrial tachycardia” value ([6]; 0.02 or 0.2 mg/kg via right ventricular cavity or tail vein, respectively) was 0.5 to 15 s, the “additional time to restore normal rhythm” value [6, 11] was 1 to 5 s and the “time … of atrial tachycardia” value [6, 11] was 0.5 to 10.5 s. The “additional time to restore normal rhythm” value [6, 12] was 1 to 5 s, the “time … of atrial tachycardia” value [6, 12] was 2 to 15 s and the “time until cardiac arrest, escape rhythm, AV block and sinus bradycardia all disappear” value ([6]; injection into right ventricular cavity) was ≤ 15 s. For the same molecule, the “time to conversion to sinus rhythm” value ([6]; ten rats, 0.02-0.2 mg/kg via tail vein) was 2 to 5 s and the “effect of intravenous injection on heart rhythm” value [7] was “caused atrioventricular conduction block and induced atrial fibrillation or flutter”.
